Data on three molecules can be found in patent publication US20100204116A1, “USE OF CALCITONIN AS ANTI-ANGIOGENIC AGENT” (priority 2007, published 2010).

Broadly, the viability is a per cent measure of how many cells are alive, often set against a control. A low value points to more harm to the cells.

For one series, the system named is HIV-1IIIB. Kind of series: HIV-1 antiviral assay (CPE reduction, MTS) in CEM-SS cells. As to conditions: peptide 10 micrograms per ml, 6 days post-infection.
The subject of the next series is CEM-SS cells. Kind of series: Cytotoxicity (MTS cell viability) in the HIV-1 assay. As to conditions: CEM-SS cells plus peptide only, 10 micrograms per ml.
For a further series, the system named is HCMV strain AD169. The experiment in a line: HCMV plaque reduction assay in MRC-5 cells. It is filed as cell-based. As to conditions: peptide 10 micrograms per ml, 7-10 days. An excerpt:
Ganciclovir was used as positive control.

The subject of series [1] is Human A549 cells. Kind of series: Propidium iodide cell cycle assay. Format: cell-based. As to conditions: peptide 10 micrograms per ml, 24 hours.
Series [2] concerns hepatitis B virus (HBV) ayw strain. The experiment in a line: HBV experimental assay system (secreted HBV DNA, TaqMan PCR). To be noted: peptide 10 micrograms per ml; six days; HBV DNA in supernatant.
Series [3] has as its system Human Peripheral Blood Mononuclear Cells (PBMC). The experiment in a line: B cell proliferation assay (SAC plus Interleukin-2, 3H-thymidine). As to conditions: peptide 10 micrograms per ml. It is filed as cell-based.
Series [4] concerns Human A549 cells. Kind of series: Apoptosis prevention assay (C2 ceramide, Annexin-5). It is filed as cell-based. As to conditions: A549 cells pretreated 30 min with peptide 10 micrograms per ml, then C2 ceramide.
Series [5] relates to Human A549 cells. The experiment in a line: Apoptosis induction assay (Annexin-5). Format: cell-based. To be noted: peptide 10 micrograms per ml, 24 hours.
A further series relates to spleen cells. Kind of series: Th1/Th2 cytokine profiling assay (Ovalbumin-restimulated spleen cells, CBA kit). Format: cell-based, Balb/c mice. As to conditions: peptide 10 micrograms per ml; Ovalbumin restimulation; 72 hours.
For series [6], the system named is Human Peripheral Blood Mononuclear Cells (PBMC). Kind of series: T cell proliferation assay (PHA, 3H-thymidine). It is filed as cell-based. As to conditions: peptide 10 micrograms per ml.
The test system of the next series is TNF alpha. Kind of series: TNF alpha production assay (LPS-stimulated macrophages, ELISA). It is filed as cell-based, human. As to conditions: peptide 10 micrograms per ml, lipopolysaccharide 200 ng/ml, overnight. The source says:
Not stimulated macrophages served as negative background control.

Series [7] can be described thus: Cytotoxicity (CellTiter 96 cell viability) in the HCMV assay. To be noted: human, MRC-5 cells (human embryonal lung fibroblasts).
Series [8] has as its system Primary Human endothelial cells (HUVEC). The experiment in a line: Endothelial cell migration assay. As to conditions: peptide 10 micrograms per ml, 22 hours. It is filed as cell-based.
For a further series, the system named is RAW 264.7 cells. The experiment in a line: Phagocytosis assay (Fluorescein-labeled Escherichia coli, flow cytometry). To be noted: peptide 10 micrograms per ml. It is filed as cell-based, mouse. As to the method: RAW 264.7 (Mouse leukaemic monocyte macrophage cell line) cells were obtained from ATCC and grown in RPMI 1640 medium containing 10% FBS. […] After the cells were incubated for additional 60 min at 37° C. and allowed to ingest the Fluorescein-labeled Escherichia coli bacteria, cells were fixed with 1% paraformaldehyde. The samples were then analyzed by flow cytometry to determine the amount of phagocytosis as a function of brightness (the greater the phagocytic activity, the more fluorescence in the macrophage population). Data are reported as % positive and the mean fluorescence intensity (MFI) of positively stained cells.
Background: In flow cytometry, cells or beads pass a laser one at a time.

The next series concerns HUVEC. The experiment in a line: Endothelial tube formation assay. Format: cell-based, human. As to conditions: peptide 10 micrograms per ml, 20 hours. An excerpt: Positive control was vehicle only.
Series [9] deals with MRC-5 cells (human embryonal lung fibroblasts). Kind of series: Cytotoxicity (CellTiter 96 cell viability) in the HCMV assay. As to conditions: MRC-5 cells; 6 days incubation; CellTiter 96.

Turning to `Cc1cn([C@H]2C[C@H](N=[N+]=[N-])[C@@H](CO)O2)c(=O)[nH]c1=O` [AZT, reference compound], the “% CPE reduction in HIV-1 infected CEM-SS cells” value in the series on HIV-1IIIB came out at 99%. The “% Cell viability” value in the series on CEM-SS cells is 97%.

As to `CC[C@H](C)[C@H](NC(=O)[C@H](C)NC(=O)[C@@H](NC(=O)[C@H](CCC(N)=O)NC(=O)[C@@H]1CCCN1C(=O)[C@H](Cc1ccccc1)NC(=O)[C@@H](NC(=O)[C@H](Cc1c[nH]cn1)NC(=O)[C@H](Cc1ccccc1)NC(=O)[C@H](CCCCN)NC(=O)[C@H](CC(N)=O)NC(=O)[C@H](Cc1ccccc1)NC(=O)[C@H](CC(=O)O)NC(=O)[C@H](CCC(N)=O)NC(=O)[C@@H](NC(=O)[C@H](Cc1ccc(O)cc1)NC(=O)[C@@H](NC(=O)CNC(=O)[C@H](CC(C)C)NC(=O)[C@H](CCSC)NC(=O)[C@@H]1CSSC[C@H](N)C(=O)NCC(=O)N[C@@H](CC(N)=O)C(=O)N[C@@H](CC(C)C)C(=O)N[C@@H](CO)C(=O)N[C@@H]([C@@H](C)O)C(=O)N1)[C@@H](C)O)[C@@H](C)O)[C@@H](C)O)[C@@H](C)O)C(=O)NCC(=O)N[C@H](C(=O)NCC(=O)N[C@@H](C)C(=O)N1CCC[C@H]1C(N)=O)C(C)C` [Calcitonin], in the series with HCMV strain AD169, the “% plaque reduction” value was 5.8%. In the series with Human A549 cells [1], the “Cell cycle analysis G0/G1” value came out at 57.0, the “Cell cycle analysis G2/M” value stood at 10.4 and the “Cell cycle analysis S” value amounted to 32.6. Further, the “% inhibition of HBV replication in HEP G2 cells” value in series [2] was 31.0%. Besides, the “% of SAC/IL2 induced control” value in series [3] is reported as 92.6%. In addition, in the series with Human A549 cells [4], the “% prevention of ceramide induced apoptosis” value turned out to be 32.7%. Further, in the series with Human A549 cells [5], the “% of induction” value amounted to 2.9%. In addition, in the series with spleen cells, the “IFNγ spleen cells; TH1 response (% of control)” value is 63.7 % of control, the “IL-2 spleen cells (% of control)” value is on record as 110.1 % of control, the “IL-4 spleen cells; TH2 response (% of control)” value was 0.0 % of control and the “IL-5 spleen cells; TH2 response (% of control)” value is given as 60.2 % of control. For the same molecule, in the series with spleen cells, the “TNF-a spleen cells; TH1 response (% of control)” value is listed as 116.4 % of control. In addition, in series [6], the “% of PHA induced Control” value amounted to 87.4%. Moreover, in the series with TNF alpha, the “% of LPS induction” value was 93.4%. This molecule also had a viability at 144 h in series [7] of 100%. The “% CPE reduction in HIV-1 infected CEM-SS cells” value in the series on HIV-1IIIB was 0.0%. Besides, the “% inhibition of migration” value in series [8] was found to be 26%. Further, in the series on RAW 264.7 cells, the “% of control phagocytosis” value is reported as 102.9%. Moreover, the “% inhibition of tube formation” value in the series with HUVEC was found to be 18%.

Turning to `Nc1nc(O)c2ncn(COC(CO)CO)c2n1` [Ganciclovir, reference compound], in series [9], the “% Cell viability” value is 100%.
